{"source": "patent US5912266A", "about": "“Beta2 integrin cell adhesion molecule inhibitors” (American Home Products Corporation, priority 1997, dated 1999)", "tested_on": "β2 integrin", "test": "Adhesion of activated, β2 integrin-expressing HL60 cells to recombinant soluble ICAM-1", "assay_type": "cell-based, human", "settings": "for Percent Cells Bound: single well", "procedure": "HL60 cells were provided by the American Type Culture Collection (ATCC No. CCL240) and were used between passages 20 to 30 as the control β2 integrin expressing cells, following stimulation for exactly four days in culture media containing dimethylsulfoxide (DMSO). Culture media was comprised of RPMI 1640 (Gibco No. 3201870AJ) supplemented with Penicillin (100 Units/ml)/Streptomycin Sulfate ([…]) (Gibco No. 600-5145AE), L-Glutamine (2 mM) (Gibco No. 320-5030PG), and 10% heat inactivated fetal bovine serum (FBS, Hyclone No. A-1111L). Fetal bovine serum was heat inactivated by incubating in a 56° C. water bath for 30 minutes. Stimulation of the expression of the β2 integrin on HL60 cells was achieved by growing the cells at a density of 2.5×10^5 cells per ml of culture media for four days in the presence of 1.25% DMSO. Following the removal of the DMSO containing media, the β2 integrin on these cells was activated to a high affinity ICAM-1 binding state by the addition of 0.1 nM of (PMA) and PMN Buffer. This buffer was comprised of Hank's balanced salt solution (HBSS) supplemented with 1.2 mM calcium chloride, 1 mM magnesium chloride, 2% glucose, […] HEPES buffer. The ICAM-1 used to measure the adhesion of β2 integrin-bearing cells was obtained from cloning and expression of recombinant, soluble, human ICAM-1 using a baculovirus expression system and standard molecular biology technology. Soluble ICAM-1 was cloned by cleaving ICAM-1 DNA, purchased from R & D Systems, with restriction enzymes to obtain DNA that codes for the soluble (non-membrane) form of the protein. […] The soluble ICAM-1 was purified by passing the media from the ICAM-1 expressing cells over an anti-ICAM-1 antibody-linked sepharose column prepared using a standard immunoaffinity chromatography kit obtained from Pierce Inc.\n200 ng of purified, recombinant, soluble ICAM-1 contained in 100 μl of PBS was added to wells of a flat bottom, 96 well EIA/RIA plate (Corning No. 25801), covered with an adhesive backed plate sealer (Linbro No. 76-401-05) and incubated for at least 18 hours at 4° C. to allow ICAM-1 to bind to the assay wells, prior to the addition of the β2 integrin expressing HL60 cells.\nHL60 cells were grown in 1.25% DMSO for 4 days and pelleted by centrifugation in a Sorvall RT6000 tabletop centrifuge for 5 minutes, 1000 rotations per minute (rpm), at room temperature. The resulting HL60 cell pellet was resuspended in 50 ml sterile Dulbecco's phosphate buffered saline (dPBS) (Gibco No. 310-4040AJ). The resulting cell pellet was resuspended in 50 ml dPBS and the cell concentration was determined using a hemacytometer. The cells were pelleted as described above and resuspended in PMN Buffer to 15 to 20×10^6 cells/ml. The resuspended HL60 cells were fluorescently labeled by mixing the cells with an equal volume of a 25 μM solution of Calcein AM (Molecular Probes No. C-1430) dye that had been dissolved in PMN Buffer. HL60 cells in the calcein AM solution was incubated in a 37° C. waterbath for 10 minutes with intermittent swirling of the reaction tube. The labeling reaction was stopped by the addition of 13 ml of ice-cold PMN Buffer and the cells were pelleted by centrifugation at 2000 rpm for 5 minutes at 4° C.\nThe labeled cell pellet was resuspended in 15 ml of ice-cold PMN Buffer and the cell density was determined using a hemacytometer. Cells were then pelleted by centrifugation at 2000 rpm for 5 minutes followed by resuspension in ice-cold PMN Buffer to 2×10^5 cells/40 μl. The labeled cell suspension was placed in the dark at room temperature while asperlin containing solutions were prepared.\nAsperlin was solubilized in 100% DMSO at a concentration of 50 mg/ml. This stock was then diluted to 400 μg/ml with PMN Buffer and serial dilutions of the 400 μg/ml asperlin solution were prepared using PMN buffer containing 2% DMSO to obtain solutions ranging from 200 μg/ml to 1.56 μg/ml. […]", "note": "“And” between values parts separate entries of the source, which are not always exact repeats. Equal values may be shown once."}
{"compound": "CC(=O)OC1C=CC(=O)OC1C1OC1C", "note": "[Asperlin, 6,7-Anhydro-2,3,8-trideoxy-D-galacto-oct-2-enoic acidδ-lactone 4-acetate]", "values": [{"measurement": "% Inhibition of Cell Adhesion", "setting": "Asperlin 1.56 μg/ml", "result": -8, "unit": "%"}, {"measurement": "Average Percent Cells Bound", "setting": "Asperlin 1.56 μg/ml", "result": 26, "unit": "%"}, {"measurement": "Bound Cell Fluorescence", "setting": "Asperlin 1.56 μg/ml", "result": "1551 fluorescence units/well and 1755 fluorescence units/well"}, {"measurement": "Percent Cells Bound", "setting": "Asperlin 1.56 μg/ml", "result": "25% and 27%"}, {"measurement": "% Inhibition of Cell Adhesion", "setting": "Asperlin 3.125 μg/ml", "result": -36, "unit": "%"}, {"measurement": "Average Percent Cells Bound", "setting": "Asperlin 3.125 μg/ml", "result": 33, "unit": "%"}, {"measurement": "Bound Cell Fluorescence", "setting": "Asperlin 3.125 μg/ml", "result": "1862 fluorescence units/well and 2077 fluorescence units/well"}, {"measurement": "Percent Cells Bound", "setting": "Asperlin 3.125 μg/ml", "result": "32% and 34%"}, {"measurement": "% Inhibition of Cell Adhesion", "setting": "Asperlin 6.25 μg/ml", "result": 29, "unit": "%"}, {"measurement": "Average Percent Cells Bound", "setting": "Asperlin 6.25 μg/ml", "result": 17, "unit": "%"}, {"measurement": "Bound Cell Fluorescence", "setting": "Asperlin 6.25 μg/ml", "result": "1003 fluorescence units/well and 1161 fluorescence units/well"}, {"measurement": "Percent Cells Bound", "setting": "Asperlin 6.25 μg/ml", "result": "15% and 19%"}, {"measurement": "% Inhibition of Cell Adhesion", "setting": "Asperlin 12.5 μg/ml", "result": 50, "unit": "%"}, {"measurement": "Average Percent Cells Bound", "setting": "Asperlin 12.5 μg/ml", "result": 12, "unit": "%"}, {"measurement": "Bound Cell Fluorescence", "setting": "Asperlin 12.5 μg/ml", "result": "589 fluorescence units/well and 768 fluorescence units/well"}, {"measurement": "Percent Cells Bound", "setting": "Asperlin 12.5 μg/ml", "result": "10% and 13%"}, {"measurement": "% Inhibition of Cell Adhesion", "setting": "Asperlin 25 μg/ml", "result": 83, "unit": "%"}, {"measurement": "Average Percent Cells Bound", "setting": "Asperlin 25 μg/ml", "result": 4, "unit": "%"}, {"measurement": "Bound Cell Fluorescence", "setting": "Asperlin 25 μg/ml", "result": "171 fluorescence units/well and 320 fluorescence units/well"}, {"measurement": "Percent Cells Bound", "setting": "Asperlin 25 μg/ml", "result": "2.6% and 5.3%"}, {"measurement": "% Inhibition of Cell Adhesion", "setting": "Asperlin 50 μg/ml", "result": 94, "unit": "%"}, {"measurement": "Average Percent Cells Bound", "setting": "Asperlin 50 μg/ml", "result": 1.4, "unit": "%"}, {"measurement": "Bound Cell Fluorescence", "setting": "Asperlin 50 μg/ml", "result": "82 fluorescence units/well and 77 fluorescence units/well"}, {"measurement": "Percent Cells Bound", "setting": "Asperlin 50 μg/ml", "result": "1.4% and 1.3%"}, {"measurement": "% Inhibition of Cell Adhesion", "setting": "Asperlin 100 μg/ml", "result": 97.5, "unit": "%"}, {"measurement": "Average Percent Cells Bound", "setting": "Asperlin 100 μg/ml", "result": 0.6, "unit": "%"}, {"measurement": "Bound Cell Fluorescence", "setting": "Asperlin 100 μg/ml", "result": "45 fluorescence units/well and 31 fluorescence units/well"}, {"measurement": "Percent Cells Bound", "setting": "Asperlin 100 μg/ml", "result": "0.7% and 0.5%"}, {"measurement": "% Inhibition of Cell Adhesion", "setting": "Asperlin 200 μg/ml", "result": 98, "unit": "%"}, {"measurement": "Average Percent Cells Bound", "setting": "Asperlin 200 μg/ml", "result": 0.5, "unit": "%"}, {"measurement": "Bound Cell Fluorescence", "setting": "Asperlin 200 μg/ml", "result": "29 fluorescence units/well and 28 fluorescence units/well"}, {"measurement": "Percent Cells Bound", "setting": "Asperlin 200 μg/ml", "result": 0.5, "unit": "%"}, {"measurement": "Effect on adhesion of activated β2 integrin expressing cells to ICAM-1 (in words)", "setting": "summary of Table I", "result": "blocks the adhesion of activated β2 integrin expressing cells to ICAM-1"}]}
